Results taken from the supplement of paper PMC10307832.

Tests used:
Experiment in all cases: relative viability (nuclei count vs DMSO), 5 days (fraction); higher = more cells survive
201T = tested on: 201T
Procedure, shortened: (§1)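 Lung cancer cell lines were seeded in 1536-well plates and dosed by pin tool the next day, with either a single drug or a fixed anchor-drug dose combined with five library-drug doses (not always all listed) spaced in √10 steps. Five days later, one step fixed the cells and stained their nuclei (final 0.05% Triton X-100, 1% formaldehyde, 1 ug/ml Hoechst), and nuclei were counted on 4× images. Relative viability is the nuclei count in treated wells divided by the count in vehicle wells, and each value is the median of duplicate plates.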

A-427 = tested on: A-427
Procedure, shortened: as §1

COR-L23 = tested on: COR-L23
Procedure, shortened: as §1

HARA = tested on: HARA
Procedure, shortened: as §1

HCC-78 = tested on: HCC-78
Procedure, shortened: as §1

LCLC-103H = tested on: LCLC-103H
Procedure, shortened: as §1

LCLC-97TM1 = tested on: LCLC-97TM1
Procedure, shortened: as §1

LK-2 = tested on: LK-2
Procedure, shortened: as §1

LOU-NH91 = tested on: LOU-NH91
Procedure, shortened: as §1

LXF-289 = tested on: LXF-289
Procedure, shortened: as §1

NCI-H1651 = tested on: NCI-H1651
Procedure, shortened: as §1

NCI-H1793 = tested on: NCI-H1793
Procedure, shortened: as §1

NCI-H2347 = tested on: NCI-H2347
Procedure, shortened: as §1

NCI-H23 = tested on: NCI-H23
Procedure, shortened: as §1

NCI-H2405 = tested on: NCI-H2405
Procedure, shortened: as §1

NCI-H520 = tested on: NCI-H520
Procedure, shortened: as §1

NCI-H647 = tested on: NCI-H647
Procedure, shortened: as §1

NCI-H838 = tested on: NCI-H838
Procedure, shortened: as §1

PC-3 [JPC-3] = tested on: PC-3 [JPC-3]
Procedure, shortened: as §1

RERF-LC-KJ = tested on: RERF-LC-KJ
Procedure, shortened: as §1

UMC-11 = tested on: UMC-11
Procedure, shortened: as §1

For Cc1cn(-c2cc(NC(=O)c3ccc(C)c(Nc4nccc(-c5cccnc5)n4)c3)cc(C(F)(F)F)c2)cn1 [Nilotinib] + C[C@]1(O)C[C@@H](c2nc(-c3ccc4ccc(-c5ccccc5)nc4c3)c3c(N)nccn32)C1 [Linsitinib] (partner 1 µM), which relative viability (201T; first compound 0.001 µM) is on record?
The relative viability was 0.942.

And the relative viability (201T; first compound 0.003162 µM)?
The relative viability was 1.06.

And the relative viability (201T; first compound 0.01 µM)?
The relative viability was 1.12.

What about the relative viability (A-427; first compound 0.001 µM) of the same compound?
Its relative viability is 1.13.

And the relative viability (A-427; first compound 0.01 µM)?
The relative viability was 1.26.

What about the relative viability (A-427; first compound 0.03162 µM) of the same compound?
Its relative viability is 1.16.

What about the relative viability (A-427; first compound 0.1 µM) of the same compound?
Its relative viability is 1.01.

And the relative viability (COR-L23; first compound 0.001 µM)?
The relative viability was 0.777.

And the relative viability (COR-L23; first compound 0.003162 µM)?
Its relative viability is 1.18.

And the relative viability (COR-L23; first compound 0.01 µM)?
The relative viability was 1.24.

What about the relative viability (COR-L23; first compound 0.03162 µM) of the same compound?
Its relative viability is 0.781.

What about the relative viability (COR-L23; first compound 0.1 µM) of the same compound?
The relative viability was 0.903.

What about the relative viability (HARA; first compound 0.001 µM) of the same compound?
Its relative viability is 0.987.

And the relative viability (HARA; first compound 0.003162 µM)?
Its relative viability is 1.37.

And the relative viability (HARA; first compound 0.01 µM)?
Its relative viability is 1.3.

And the relative viability (HARA; first compound 0.03162 µM)?
Its relative viability is 0.742.

What about the relative viability (HARA; first compound 0.1 µM) of the same compound?
The relative viability was 0.93.

What about the relative viability (HCC-78; first compound 0.001 µM) of the same compound?
The relative viability was 0.582.

And the relative viability (HCC-78; first compound 0.003162 µM)?
Its relative viability is 0.522.

And the relative viability (HCC-78; first compound 0.01 µM)?
The relative viability was 0.637.

What about the relative viability (HCC-78; first compound 0.03162 µM) of the same compound?
Its relative viability is 0.612.

And the relative viability (HCC-78; first compound 0.1 µM)?
Its relative viability is 0.604.

And the relative viability (LCLC-103H; first compound 0.001 µM)?
The relative viability was 1.19.

What about the relative viability (LCLC-103H; first compound 0.003162 µM) of the same compound?
The relative viability was 1.17.

What about the relative viability (LCLC-103H; first compound 0.03162 µM) of the same compound?
The relative viability was 0.783.

What about the relative viability (LCLC-103H; first compound 0.1 µM) of the same compound?
The relative viability was 1.17.

And the relative viability (LCLC-97TM1; first compound 0.001 µM)?
The relative viability was 0.198.

And the relative viability (LCLC-97TM1; first compound 0.003162 µM)?
Its relative viability is 0.228.

And the relative viability (LCLC-97TM1; first compound 0.01 µM)?
The relative viability was 0.276.

And the relative viability (LCLC-97TM1; first compound 0.03162 µM)?
The relative viability was 0.245.

What about the relative viability (LCLC-97TM1; first compound 0.1 µM) of the same compound?
Its relative viability is 0.247.

And the relative viability (LK-2; first compound 0.001 µM)?
The relative viability was 0.517.

What about the relative viability (LK-2; first compound 0.003162 µM) of the same compound?
Its relative viability is 0.515.

What about the relative viability (LK-2; first compound 0.01 µM) of the same compound?
The relative viability was 0.442.

What about the relative viability (LK-2; first compound 0.03162 µM) of the same compound?
Its relative viability is 0.405.

And the relative viability (LK-2; first compound 0.1 µM)?
The relative viability was 0.487.

What about the relative viability (LOU-NH91; first compound 0.001 µM) of the same compound?
Its relative viability is 0.929.

What about the relative viability (LOU-NH91; first compound 0.003162 µM) of the same compound?
The relative viability was 1.01.

What about the relative viability (LOU-NH91; first compound 0.01 µM) of the same compound?
The relative viability was 0.976.

And the relative viability (LOU-NH91; first compound 0.03162 µM)?
Its relative viability is 0.926.

And the relative viability (LOU-NH91; first compound 0.1 µM)?
Its relative viability is 0.917.

What about the relative viability (LXF-289; first compound 0.001 µM) of the same compound?
The relative viability was 0.979.

And the relative viability (LXF-289; first compound 0.003162 µM)?
The relative viability was 1.15.

And the relative viability (LXF-289; first compound 0.01 µM)?
The relative viability was 1.09.

What about the relative viability (LXF-289; first compound 0.03162 µM) of the same compound?
The relative viability was 0.949.

And the relative viability (LXF-289; first compound 0.1 µM)?
Its relative viability is 0.92.

And the relative viability (NCI-H1651; first compound 0.001 µM)?
The relative viability was 1.08.

What about the relative viability (NCI-H1651; first compound 0.003162 µM) of the same compound?
The relative viability was 1.42.

And the relative viability (NCI-H1651; first compound 0.01 µM)?
The relative viability was 1.32.

And the relative viability (NCI-H1651; first compound 0.03162 µM)?
Its relative viability is 0.879.

What about the relative viability (NCI-H1651; first compound 0.1 µM) of the same compound?
The relative viability was 1.06.

What about the relative viability (NCI-H1793; first compound 0.003162 µM) of the same compound?
Its relative viability is 1.09.

What about the relative viability (NCI-H1793; first compound 0.01 µM) of the same compound?
Its relative viability is 1.41.

What about the relative viability (NCI-H1793; first compound 0.03162 µM) of the same compound?
Its relative viability is 0.734.

And the relative viability (NCI-H1793; first compound 0.1 µM)?
The relative viability was 0.443.

What about the relative viability (NCI-H2347; first compound 0.001 µM) of the same compound?
Its relative viability is 1.01.

And the relative viability (NCI-H2347; first compound 0.003162 µM)?
The relative viability was 1.11.

And the relative viability (NCI-H2347; first compound 0.01 µM)?
The relative viability was 1.1.

And the relative viability (NCI-H2347; first compound 0.03162 µM)?
Its relative viability is 0.903.

And the relative viability (NCI-H2347; first compound 0.1 µM)?
The relative viability was 0.909.

What about the relative viability (NCI-H23; first compound 0.001 µM) of the same compound?
The relative viability was 0.556.

What about the relative viability (NCI-H23; first compound 0.003162 µM) of the same compound?
The relative viability was 0.686.

What about the relative viability (NCI-H23; first compound 0.01 µM) of the same compound?
Its relative viability is 0.713.

What about the relative viability (NCI-H23; first compound 0.03162 µM) of the same compound?
Its relative viability is 0.49.

What about the relative viability (NCI-H23; first compound 0.1 µM) of the same compound?
The relative viability was 0.579.

And the relative viability (NCI-H2405; first compound 0.001 µM)?
Its relative viability is 0.976.

And the relative viability (NCI-H2405; first compound 0.003162 µM)?
Its relative viability is 0.916.

And the relative viability (NCI-H2405; first compound 0.01 µM)?
The relative viability was 0.838.

What about the relative viability (NCI-H2405; first compound 0.03162 µM) of the same compound?
Its relative viability is 0.789.

And the relative viability (NCI-H2405; first compound 0.1 µM)?
Its relative viability is 0.74.

And the relative viability (NCI-H520; first compound 0.001 µM)?
The relative viability was 0.792.

What about the relative viability (NCI-H520; first compound 0.01 µM) of the same compound?
The relative viability was 1.2.

What about the relative viability (NCI-H520; first compound 0.03162 µM) of the same compound?
Its relative viability is 0.91.

What about the relative viability (NCI-H520; first compound 0.1 µM) of the same compound?
Its relative viability is 0.928.

And the relative viability (NCI-H647; first compound 0.001 µM)?
The relative viability was 1.13.

What about the relative viability (NCI-H647; first compound 0.003162 µM) of the same compound?
The relative viability was 1.43.

And the relative viability (NCI-H647; first compound 0.03162 µM)?
Its relative viability is 1.07.

And the relative viability (NCI-H647; first compound 0.1 µM)?
Its relative viability is 1.02.

What about the relative viability (NCI-H838; first compound 0.001 µM) of the same compound?
Its relative viability is 0.989.

What about the relative viability (NCI-H838; first compound 0.003162 µM) of the same compound?
Its relative viability is 1.37.

And the relative viability (NCI-H838; first compound 0.01 µM)?
The relative viability was 1.39.

And the relative viability (NCI-H838; first compound 0.03162 µM)?
Its relative viability is 0.967.

What about the relative viability (NCI-H838; first compound 0.1 µM) of the same compound?
The relative viability was 0.968.

And the relative viability (PC-3 [JPC-3]; first compound 0.001 µM)?
Its relative viability is 0.997.

What about the relative viability (PC-3 [JPC-3]; first compound 0.003162 µM) of the same compound?
Its relative viability is 1.1.

And the relative viability (PC-3 [JPC-3]; first compound 0.01 µM)?
The relative viability was 1.09.

And the relative viability (PC-3 [JPC-3]; first compound 0.03162 µM)?
The relative viability was 1.01.

And the relative viability (PC-3 [JPC-3]; first compound 0.1 µM)?
The relative viability was 0.927.

And the relative viability (RERF-LC-KJ; first compound 0.001 µM)?
Its relative viability is 0.882.

And the relative viability (RERF-LC-KJ; first compound 0.003162 µM)?
The relative viability was 0.941.

And the relative viability (RERF-LC-KJ; first compound 0.01 µM)?
Its relative viability is 1.05.

And the relative viability (RERF-LC-KJ; first compound 0.03162 µM)?
The relative viability was 0.853.

What about the relative viability (RERF-LC-KJ; first compound 0.1 µM) of the same compound?
The relative viability was 0.917.

What about the relative viability (UMC-11; first compound 0.001 µM) of the same compound?
Its relative viability is 1.

And the relative viability (UMC-11; first compound 0.003162 µM)?
Its relative viability is 1.26.

What about the relative viability (UMC-11; first compound 0.01 µM) of the same compound?
The relative viability was 1.27.

And the relative viability (UMC-11; first compound 0.1 µM)?
The relative viability was 1.13.
